In US20130150325A1, “3-(Fluorovinyl)pyrazoles and their use” (BAYER INTELLECTUAL PROPERTY GMBH, priority 2011, published 2013):

Tested on: HCT 116 cells transfected with a luciferase reporter under the control of an HIF-responsive sequence
Assay: HIF-luciferase assay
Assay type: cell-based
Conditions: Homo sapiens; HCT 116 HIF-luciferase reporter cells, hypoxia chamber (1% O2), 24 h; in some cases means of up to four individual determinations
Protocol: HCT 116 cells were transfected in a stable manner with a plasmid which contained a luciferase reporter under the control of an HIF-responsive sequence. These cells were sown in microtitre plates [20 000 cells/cavity in RPMI 1640 medium with 10% foetal calf serum (FCS) and 100 μg/ml of hygromycin]. Incubation was carried out overnight under standard conditions (5% CO2, 21% O2, 37° C., moistened). The following morning the cells were incubated with various concentrations of the test substances (0-10 μmol/l) in a hypoxia chamber (1% O2). After 24 h, Bright Glo reagent (Promega, Wisconsin, USA) was added in accordance with the manufacturer's instructions, and after 5 min the luminescence was measured. Cells which were incubated under normoxia served as background controls.
The IC50 values from this assay for representative working examples are listed in the following table (in same cases as means of up to four individual determinations): […]

IC50 [nM]	SMILES
4	Cc1cc(/C(F)=C/c2ccc(SC(F)(F)F)cc2)nn1Cc1cccc(C(=O)N2CCN(C3CC3)CC2)c1 [Example 38, (4-Cyclopropylpiperazin-1-yl)[3-({3-[(Z)-1-fluoro-2-{4-[(trifluoromethyl)sulphanyl]phenyl}vinyl]-5-methyl-1H-pyrazol-1-yl}methyl)phenyl]methanone]
2	Cc1cc(/C(F)=C/c2ccc(C(C)(C)C(F)(F)F)cc2)nn1Cc1cccc(C(=O)N2CCN(C3CC3)CC2)c1 [Example 39, (4-Cyclopropylpiperazin-1-yl) {3-[(3-{(Z)-1-fluoro-2-[4-(1,1,1-trifluoro-2-methylpropan-2-yl)-phenyl]vinyl}-5-methyl-1H-pyrazol-1-yl)methyl]phenyl}methanone]
2	Cc1cc(/C(F)=C/c2ccc(C3(C(F)(F)F)CC3)cc2)nn1Cc1cccc(C(=O)N2CCN(C3CC3)CC2)c1 [Example 40, (4-Cyclopropylpiperazin-1-yl)[3-({3-[(Z)-1-fluoro-2-{4-[1-(trifluoromethyl)cyclopropyl]phenyl}-vinyl]-5-methyl-1H-pyrazol-1-yl}methyl)phenyl]methanone]
3	Cc1cc(/C(F)=C/c2ccc(C(F)(F)F)cc2)nn1Cc1cccc(C(=O)N2CCN(C3CC3)CC2)c1 [Example 41, (4-Cyclopropylpiperazin-1-yl) {3-[(3-{(Z)-1-fluoro-2-[4-(trifluoromethyl)phenyl]vinyl}-5-methyl-1H-pyrazol-1-yl)methyl]phenyl}methanone]
4	Cc1cc(/C(F)=C/c2ccc(OC(F)(F)F)cc2)nn1Cc1cccc(C(=O)N2CCN(C)CC2)c1 [Example 42, {3-[(3-{(Z)-1-Fluoro-2-[4-(trifluoromethoxy)phenyl]vinyl}-5-methyl-1H-pyrazol-1-yl)methyl]-phenyl}(4-methylpiperazin-1-yl)methanone]
2	CC(=O)OC1(c2cccc(Cn3nc(/C(F)=C/c4ccc(OC(F)(F)F)cc4)cc3C)c2)CC1 [Example 43, 1-{3-[(3-{(Z)-1-Fluoro-2-[4-(trifluoromethoxy)phenyl]vinyl}-5-methyl-1H-pyrazol-1-yl)methyl]phenyl}cyclopropyl acetate]
0.5	CC(=O)OC1(c2cccc(Cn3nc(/C(F)=C/c4ccc(C(C)(C)C(F)(F)F)cc4)cc3C)c2)CC1 [Example 44, 1-{3-[(3-{(Z)-1-Fluoro-2-[4-(1,1,1-trifluoro-2-methylpropan-2-yl)phenyl]vinyl}-5-methyl-1H-pyrazol-1-yl)methyl]phenyl}cyclopropyl acetate]
0.7	CC(=O)OC1(c2cccc(Cn3nc(/C(F)=C/c4ccc(C5(C(F)(F)F)CC5)cc4)cc3C)c2)CC1 [Example 46, 1-[3-({3-[(Z)-1-Fluoro-2-{4-[1-(trifluoromethyl)cyclopropyl]phenyl}vinyl]-5-methyl-1H-pyrazol-1-yl}methyl)phenyl]cyclopropyl acetate]
2	Cc1cc(/C(F)=C/c2ccc(OC(F)(F)F)cc2)nn1Cc1cccc(C2(O)CC2)c1 [Example 48, 1-{3-[(3-{(Z)-1-Fluoro-2-[4-(trifluoromethoxy)phenyl]vinyl}-5-methyl-1H-pyrazol-1-yl)methyl]-phenyl}cyclopropanol]
0.8	Cc1cc(/C(F)=C/c2ccc(C(C)(C)C(F)(F)F)cc2)nn1Cc1cccc(C2(O)CC2)c1 [Example 49, 1-{3-[(3-{(Z)-1-Fluoro-2-[4-(1,1,1-trifluoro-2-methylpropan-2-yl)phenyl]vinyl}-5-methyl-1H-pyrazol-1-yl)methyl]phenyl}cyclopropanol]
1	Cc1cc(/C(F)=C/c2ccc(C(C)(C)C(F)(F)F)c(F)c2)nn1Cc1cccc(C2(O)CC2)c1 [Example 50, 1-{3-[(3-{(Z)-1-Fluoro-2-[3-fluoro-4-(1,1,1-trifluoro-2-methylpropan-2-yl)phenyl]vinyl}-5-methyl-1H-pyrazol-1-yl)methyl]phenyl}cyclopropanol]
1	Cc1cc(/C(F)=C/c2ccc(C3(C(F)(F)F)CC3)cc2)nn1Cc1cccc(C2(O)CC2)c1 [Example 51, 1-[3-({3-[(Z)-1-Fluoro-2-{4-[1-(trifluoromethyl)cyclopropyl]phenyl}vinyl]-5-methyl-1H-pyrazol-1-yl}methyl)phenyl]cyclopropanol]
1	Cc1cc(/C(F)=C/c2ccc(C(C)(C)C)cc2)nn1Cc1cccc(C2(O)CC2)c1 [Example 52, 1-[3-({3-[(Z)-2-(4-tert-Butylphenyl)-1-fluorovinyl]-5-methyl-1H-pyrazol-1-yl}methyl)phenyl]-cyclopropanol]
4	Cc1cc(/C(F)=C/c2ccc(OC(F)(F)F)cc2)nn1Cc1cccc(C(C)(C)O)c1 [Example 53, 2-{3-[(3-{(Z)-1-Fluoro-2-[4-(trifluoromethoxy)phenyl]vinyl}-5-methyl-1H-pyrazol-1-yl)methyl]-phenyl}propan-2-ol]

The remaining lines, values behind:

SMILES	IC50 [nM]
COC(=O)c1cccc(Cn2nc(/C(F)=C/c3ccc([Si](C)(C)C)cc3)cc2C)c1 [Example 23, Methyl 3-[(3-{(Z)-1-fluoro-2-[4-(trimethylsilyl)phenyl]vinyl}-5-methyl-1H-pyrazol-1-yl)methyl]benzoate]	1
Cc1cc(/C(F)=C/c2ccc(OC(F)(F)F)cc2)nn1Cc1cccc(C(=O)N(C)C)c1 [Example 25, 3-[(3-{(Z)-1-Fluoro-2-[4-(trifluoromethoxy)phenyl]vinyl}-5-methyl-1H-pyrazol-1-yl)methyl]-N,N-dimethylbenzamide]	6
Cc1cc(/C(F)=C/c2ccc(OC(F)(F)F)cc2)nn1Cc1cccc(C(=O)N2CCCC2)c1 [Example 26, {3-[(3-{(Z)-1-Fluoro-2-[4-(trifluoromethoxy)phenyl]vinyl}-5-methyl-1H-pyrazol-1-yl)-methyl]phenyl}(pyrrolidin-1-yl)methanone]	1.5
Cc1cc(/C(F)=C/c2ccc(SC(F)(F)F)cc2)nn1Cc1cccc(C(=O)N2CCCC2)c1 [Example 27, [3-({3-[(Z)-1-Fluoro-2-{4-[(trifluoromethyl)sulphanyl]phenyl}vinyl]-5-methyl-1H-pyrazol-1-yl}methyl)phenyl](pyrrolidin-1-yl)methanone]	4
Cc1cc(/C(F)=C/c2ccc(C(C)(C)C(F)(F)F)cc2)nn1Cc1cccc(C(=O)N2CCCC2)c1 [Example 28, {3-[(3-{(Z)-1-Fluoro-2-[4-(1,1,1-trifluoro-2-methylpropan-2-yl)phenyl]vinyl}-5-methyl-1H-pyrazol-1-yl)methyl]phenyl}(pyrrolidin-1-yl)methanone]	5
Cc1cc(/C(F)=C/c2ccc(C3(C(F)(F)F)CC3)cc2)nn1Cc1cccc(C(=O)N2CCCC2)c1 [Example 29, [3-({3-[(Z)-1-Fluoro-2-{4-[1-(trifluoromethyl)cyclopropyl]phenyl}vinyl]-5-methyl-1H-pyrazol-1-yl}methyl)phenyl](pyrrolidin-1-yl)methanone]	5
Cc1cc(/C(F)=C/c2ccc(C(F)(F)F)cc2)nn1Cc1cccc(C(=O)N2CCCC2)c1 [Example 30, {3-[(3-{(Z)-1-Fluoro-2-[4-(trifluoromethyl)phenyl]vinyl}-5-methyl-1H-pyrazol-1-yl)methyl]-phenyl}(pyrrolidin-1-yl)methanone]	6
Cc1cc(/C(F)=C/c2ccc(OC(F)(F)F)cc2)nn1Cc1cccc(C(=O)N2CCOCC2)c1 [Example 31, {3-[(3-{(Z)-1-Fluoro-2-[4-(trifluoromethoxy)phenyl]vinyl}-5-methyl-1H-pyrazol-1-yl)methyl]-phenyl}(morpholin-4-yl)methanone]	3
Cc1cc(/C(F)=C/c2ccc(OC(F)(F)F)cc2)nn1Cc1cccc(C(=O)N2CCC(O)CC2)c1 [Example 32, {3-[(3-{(Z)-1-Fluoro-2-[4-(trifluoromethoxy)phenyl]vinyl}-5-methyl-1H-pyrazol-1-yl)-methyl]phenyl}(4-hydroxypiperidin-1-yl)methanone]	4
Cc1cc(/C(F)=C/c2ccc(SC(F)(F)F)cc2)nn1Cc1cccc(C(=O)N2CCC(O)CC2)c1 [Example 33, [3-({3-[(Z)-1-Fluoro-2-{4-[(trifluoromethyl)sulphanyl]phenyl}vinyl]-5-methyl-1H-pyrazol-1-yl}-methyl)phenyl](4-hydroxypiperidin-1-yl)methanone]	4
Cc1cc(/C(F)=C/c2ccc(C(C)(C)C(F)(F)F)cc2)nn1Cc1cccc(C(=O)N2CCC(O)CC2)c1 [Example 34, {3-[(3-{(Z)-1-Fluoro-2-[4-(1,1,1-trifluoro-2-methylpropan-2-yl)phenyl]vinyl}-5-methyl-1H-pyrazol-1-yl)methyl]phenyl}(4-hydroxypiperidin-1-yl)methanone]	5
Cc1cc(/C(F)=C/c2ccc(C3(C(F)(F)F)CC3)cc2)nn1Cc1cccc(C(=O)N2CCC(O)CC2)c1 [Example 35, [3-({3-[(Z)-1-Fluoro-2-{4-[1-(trifluoromethyl)cyclopropyl]phenyl}vinyl]-5-methyl-1H-pyrazol-1-yl}methyl)phenyl](4-hydroxypiperidin-1-yl)methanone]	5
Cc1cc(/C(F)=C/c2ccc(C(F)(F)F)cc2)nn1Cc1cccc(C(=O)N2CCC(O)CC2)c1 [Example 36, {3-[(3-{(Z)-1-Fluoro-2-[4-(trifluoromethyl)phenyl]vinyl}-5-methyl-1H-pyrazol-1-yl)methyl]-phenyl}(4-hydroxypiperidin-1-yl)methanone]	4
Cc1cc(/C(F)=C/c2ccc(OC(F)(F)F)cc2)nn1Cc1cccc(C(=O)N2CCN(C3CC3)CC2)c1 [Example 37, (4-Cyclopropylpiperazin-1-yl) {3-[(3-{(Z)-1-fluoro-2-[4-(trifluoromethoxy)phenyl]vinyl}-5-methyl-1H-pyrazol-1-yl)methyl]phenyl}methanone]	3
